Data published in patent US20250188420A1, “MATURING AGENT HAVING BOTH OF ALK5 INHIBITORY ACTIVITY AND CDK8/19 INHIBITORY ACTIVITY” (ORIZURU THERAPEUTICS, INC., priority 2022, published 2025).
Read-outs that look alike come from different tables or passages of the source.

Legend:
[1] = test system: pancreatic progenitor cell population obtained from human iPS cells (Ff-I14-s04 line); experiment: induction of differentiation of pancreatic progenitor cell population into insulin-positive cell population, flow cytometry; assay type: cell-based
Method: In this testing method, the induction of differentiation of human iPS cells (Ff-I14-s04 line) into a pancreatic progenitor cell population was carried out according to the above steps 1)-4), the previous report (Stem Cell Research (2015) 14, 185-197), etc. The induction of differentiation into insulin-positive cells was carried out according to the above step 5), 6), etc.
The number of insulin-positive and NKX6.1-positive cells and the number of CHGA-positive and PDX1-positive cells in the insulin-positive cell population obtained by the above method was counted by flow cytometry to determine the respective proportions of the cells in each cell population.
The number of insulin-positive and NKX6.1-positive cells in the insulin-positive cell population obtained by the above method was counted by flow cytometry to determine the respective proportions of the cells in each cell population.

[2] = test system: insulin-positive cell population obtained from human iPS cells; experiment: single-cell RNA-seq analysis of insulin-positive cell populations; assay type: cell-based; conditions: for typical endocrine cells (clusters #0, #1, #2, #3, and #6) in the insulin-positive cell population: 10 μM ALK5iII, 3 μM SB431542, 0.3 μM Senexin B or combination; for percentage of each cluster (#1, #3, #6, and #12) in insulin-positive and NKX6.1-positive cell subpopulation: versus population produced using ALK5iII, FIG. 5
Method: Subsequently, in order to compare cell composition among the respective insulin-positive cell populations produced using the inhibitors (1) to (4), single-cell RNA-seq (scRNA-seq) analysis was conducted. A library for scRNA-seq analysis was prepared using Chromium Controller and a preparation kit (Chromium Next GEM Single Cell 3′ Kits v3.1) from 10× Genomics, Inc. and sequenced using Hi-seq platform from Illumina, Inc. Data on the obtained UMI counts was analyzed using Cell Ranger and R Package Seurat from 10× Genomics, Inc. and subjected to dimensionality reduction and visualization using PCA and UMAP. Cell clustering based on the results of dimensionality reduction was carried out by clustering based on the shared nearest neighbor method of Seurat.
As a result, cell clusters #1 to #17 were identified in the respective insulin-positive cell populations produced using the inhibitors (1) to (4). […] The cells of clusters #3 and #6 had features specific for enterochromaffin cells. […] These cells can thereby be discriminated from the cells of cluster #1 adjacent thereto and are therefore considered to be relatively immature β cells. Some of the β cells might be integrated, together with α cells, δ cells, and γ cells, into cluster #0.

[3] = test system: pancreatic progenitor cell population obtained from human iPS cells (Ff-I14-s04 line); experiment: induction of differentiation of pancreatic progenitor cell population into insulin-positive cell population, flow cytometry; assay type: cell-based; conditions: Example 3; 3 μM SB431542, 0.3 μM Senexin B or both; versus 10 μM ALK5iII, FIG. 4B
[4] = test system: Salmonella typhimurium TA1537
Method: (§1) The Ames test was conducted according to a conventionally known approach. That is, each bacterial strain of Salmonella typhimurium TA100, TA1535, TA98, and TA1537 strains and an Escherichia coli WP2uvrA strain was mixed with each compound with seven concentrations (78.1 to 5,000 μg/plate), preincubated in vitro for 20 minutes, and then inoculated, together with added semifluid agar, to a minimal glucose agar medium, followed by solidification and incubation at 37° C. for 48 hours. This experiment involved no rat liver S9 fraction because the experiment was aimed at evaluating the mutagenicity of each compound in a cell culture system, not evaluating metabolites obtained after metabolisms by hepatic enzymes. […] Positivity was determined when an average number of revertant colonies in any of the bacterial strains was at least twice or more the average number of the negative control.

CDK8 and CDK19 (CDK8/19) = experiment: binding evaluation test of kinase inhibitors against 11 kinases (FIG. 3); conditions: compared among ALK5iII and nonmutagenic ALK5 inhibitors
Method: Next, the nonmutagenic ALK5 inhibitors (SB431542, SB525334, IN1130, and EW-7197) were also evaluated for their inhibitory activity against these 11 kinases.

CDK19 = CDK19 (Homo sapiens, UniProt Q9BWU1); conditions: estimated from inhibition at 0.1 μM and 1 μM
CDK19, sequence (Q9BWU1 whole entry, species assumed): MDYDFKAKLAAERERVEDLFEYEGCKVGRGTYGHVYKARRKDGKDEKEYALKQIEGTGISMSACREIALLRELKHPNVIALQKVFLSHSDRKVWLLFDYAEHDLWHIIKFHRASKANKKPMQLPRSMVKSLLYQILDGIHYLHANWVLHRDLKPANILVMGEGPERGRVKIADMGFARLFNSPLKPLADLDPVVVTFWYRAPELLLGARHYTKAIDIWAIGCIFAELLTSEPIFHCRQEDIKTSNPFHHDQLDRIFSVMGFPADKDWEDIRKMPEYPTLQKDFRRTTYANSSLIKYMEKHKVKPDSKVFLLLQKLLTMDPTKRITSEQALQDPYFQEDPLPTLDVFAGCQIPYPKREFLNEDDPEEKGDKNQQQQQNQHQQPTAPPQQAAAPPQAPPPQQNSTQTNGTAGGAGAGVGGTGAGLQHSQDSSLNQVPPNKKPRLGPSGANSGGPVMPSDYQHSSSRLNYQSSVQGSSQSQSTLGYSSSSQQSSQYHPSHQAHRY
CDK19, sequence (P24863 whole entry partner, species assumed): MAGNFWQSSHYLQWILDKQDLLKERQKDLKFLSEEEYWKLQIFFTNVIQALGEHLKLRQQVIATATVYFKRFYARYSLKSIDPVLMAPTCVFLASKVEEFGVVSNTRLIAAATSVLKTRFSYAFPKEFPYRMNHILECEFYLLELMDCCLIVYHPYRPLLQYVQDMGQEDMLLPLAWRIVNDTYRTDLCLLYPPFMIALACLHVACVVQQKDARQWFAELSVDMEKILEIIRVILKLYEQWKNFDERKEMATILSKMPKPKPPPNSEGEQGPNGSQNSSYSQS

TGFBR2 = TGFBR2 (Homo sapiens, UniProt P37173); conditions: estimated from inhibition at 0.1 μM and 1 μM
TGFBR2, sequence (P37173 23-567, species assumed): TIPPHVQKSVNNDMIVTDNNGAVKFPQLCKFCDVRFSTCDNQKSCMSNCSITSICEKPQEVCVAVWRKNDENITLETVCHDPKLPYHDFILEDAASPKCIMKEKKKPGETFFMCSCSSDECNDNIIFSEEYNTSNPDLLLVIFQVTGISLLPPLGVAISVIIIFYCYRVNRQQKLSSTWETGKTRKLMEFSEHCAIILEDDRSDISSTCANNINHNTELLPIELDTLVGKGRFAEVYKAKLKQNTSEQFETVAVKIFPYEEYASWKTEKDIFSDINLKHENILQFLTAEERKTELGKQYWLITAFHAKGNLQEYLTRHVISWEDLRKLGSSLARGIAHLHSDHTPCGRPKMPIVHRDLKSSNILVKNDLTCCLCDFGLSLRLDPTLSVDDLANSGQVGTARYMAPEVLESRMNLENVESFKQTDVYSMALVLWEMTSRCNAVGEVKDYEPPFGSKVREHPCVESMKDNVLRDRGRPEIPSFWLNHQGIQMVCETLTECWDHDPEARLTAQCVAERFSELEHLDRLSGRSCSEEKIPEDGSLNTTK

RIPK2 = RIPK2 (Homo sapiens, UniProt O43353); conditions: estimated from inhibition at 0.1 μM and 1 μM
RIPK2, sequence (O43353 whole entry, species assumed): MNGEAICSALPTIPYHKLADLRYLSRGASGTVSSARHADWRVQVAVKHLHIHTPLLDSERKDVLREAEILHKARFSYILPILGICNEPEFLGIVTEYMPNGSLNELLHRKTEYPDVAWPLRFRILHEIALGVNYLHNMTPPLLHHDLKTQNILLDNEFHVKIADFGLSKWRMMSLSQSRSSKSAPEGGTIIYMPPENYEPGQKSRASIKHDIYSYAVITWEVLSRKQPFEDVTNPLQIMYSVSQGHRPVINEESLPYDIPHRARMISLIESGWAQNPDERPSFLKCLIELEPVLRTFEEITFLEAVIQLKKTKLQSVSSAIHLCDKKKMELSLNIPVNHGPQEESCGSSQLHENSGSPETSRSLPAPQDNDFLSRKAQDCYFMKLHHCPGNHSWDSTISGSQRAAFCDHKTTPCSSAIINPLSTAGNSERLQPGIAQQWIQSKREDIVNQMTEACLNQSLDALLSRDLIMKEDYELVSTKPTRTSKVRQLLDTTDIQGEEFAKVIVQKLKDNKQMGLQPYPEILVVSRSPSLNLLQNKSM

CDK8 = CDK8 (Homo sapiens, UniProt P49336); conditions: estimated from inhibition at 0.1 μM and 1 μM
CDK8, sequence (P49336 whole entry, species assumed): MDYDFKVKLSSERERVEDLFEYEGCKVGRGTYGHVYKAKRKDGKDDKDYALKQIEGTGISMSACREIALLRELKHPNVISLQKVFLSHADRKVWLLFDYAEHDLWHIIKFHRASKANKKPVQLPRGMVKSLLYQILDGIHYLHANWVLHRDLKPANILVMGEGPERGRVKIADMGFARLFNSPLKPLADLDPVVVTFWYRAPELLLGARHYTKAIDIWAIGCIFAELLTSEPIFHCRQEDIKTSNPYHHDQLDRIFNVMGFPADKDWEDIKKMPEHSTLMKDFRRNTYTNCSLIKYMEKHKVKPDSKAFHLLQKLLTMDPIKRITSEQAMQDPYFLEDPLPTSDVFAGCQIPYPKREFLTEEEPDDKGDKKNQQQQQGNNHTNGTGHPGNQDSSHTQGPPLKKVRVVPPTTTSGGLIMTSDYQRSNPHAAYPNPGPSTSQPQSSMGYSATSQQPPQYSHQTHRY
CDK8, sequence (P24863 whole entry partner, species assumed): as the sequence (P24863 whole entry partner, species assumed) above

TNIK = TNIK (Homo sapiens, UniProt Q9UKE5); conditions: estimated from inhibition at 0.1 μM and 1 μM
TNIK, sequence (Q9UKE5 whole entry, species assumed): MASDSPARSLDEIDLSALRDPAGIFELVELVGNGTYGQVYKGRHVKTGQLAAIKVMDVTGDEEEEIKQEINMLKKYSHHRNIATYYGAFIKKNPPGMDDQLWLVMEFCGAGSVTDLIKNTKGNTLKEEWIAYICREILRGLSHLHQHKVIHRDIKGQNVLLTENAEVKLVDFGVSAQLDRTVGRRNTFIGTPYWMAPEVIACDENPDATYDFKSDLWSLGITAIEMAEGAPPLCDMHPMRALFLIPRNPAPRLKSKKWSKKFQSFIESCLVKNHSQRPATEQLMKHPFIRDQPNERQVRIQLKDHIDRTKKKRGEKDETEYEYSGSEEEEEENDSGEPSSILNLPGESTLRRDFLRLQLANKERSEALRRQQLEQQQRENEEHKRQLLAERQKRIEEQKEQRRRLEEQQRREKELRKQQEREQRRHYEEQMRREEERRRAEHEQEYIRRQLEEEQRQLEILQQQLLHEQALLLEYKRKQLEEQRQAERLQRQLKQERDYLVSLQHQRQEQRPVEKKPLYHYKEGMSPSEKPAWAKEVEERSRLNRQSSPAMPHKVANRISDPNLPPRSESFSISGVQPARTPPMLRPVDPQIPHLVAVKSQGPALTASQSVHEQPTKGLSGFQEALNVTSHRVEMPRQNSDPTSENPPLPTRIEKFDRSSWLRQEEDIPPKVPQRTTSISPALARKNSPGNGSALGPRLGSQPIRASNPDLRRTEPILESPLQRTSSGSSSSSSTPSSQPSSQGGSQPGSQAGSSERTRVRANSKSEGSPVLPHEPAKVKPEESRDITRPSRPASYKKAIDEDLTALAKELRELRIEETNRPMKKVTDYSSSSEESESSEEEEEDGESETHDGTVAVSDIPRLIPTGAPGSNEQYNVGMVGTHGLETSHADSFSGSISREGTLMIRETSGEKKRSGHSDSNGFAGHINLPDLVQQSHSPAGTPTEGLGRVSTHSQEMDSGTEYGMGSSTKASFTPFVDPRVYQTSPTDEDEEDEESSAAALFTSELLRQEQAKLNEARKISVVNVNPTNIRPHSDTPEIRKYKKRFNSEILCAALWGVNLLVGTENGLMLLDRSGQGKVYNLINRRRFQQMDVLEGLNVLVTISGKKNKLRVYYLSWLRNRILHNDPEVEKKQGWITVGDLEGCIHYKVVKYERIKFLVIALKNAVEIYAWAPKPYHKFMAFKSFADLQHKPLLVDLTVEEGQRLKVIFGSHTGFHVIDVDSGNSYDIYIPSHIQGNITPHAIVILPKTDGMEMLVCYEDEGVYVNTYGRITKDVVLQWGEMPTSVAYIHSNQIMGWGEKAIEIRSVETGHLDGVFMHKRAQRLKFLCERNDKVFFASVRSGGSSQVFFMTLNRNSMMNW

[5] = test system: 11 kinases including CDK8 and CDK19; conditions: 11 of approximately 350 recombinant kinases
[6] = test system: Salmonella typhimurium TA100, TA1535, TA98, and TA1537 strains and an Escherichia coli WP2uvrA strain; experiment: Ames test (mutagenicity evaluation); conditions: no S9 fraction; FIG. 1
Method: as §1

ALK5 = target: T1, ALK5 (Homo sapiens, UniProt P36897); experiment: ALK5-inhibiting activity (FIG. 1); assay type: biochemical
T1 sequence (P36897 34-503): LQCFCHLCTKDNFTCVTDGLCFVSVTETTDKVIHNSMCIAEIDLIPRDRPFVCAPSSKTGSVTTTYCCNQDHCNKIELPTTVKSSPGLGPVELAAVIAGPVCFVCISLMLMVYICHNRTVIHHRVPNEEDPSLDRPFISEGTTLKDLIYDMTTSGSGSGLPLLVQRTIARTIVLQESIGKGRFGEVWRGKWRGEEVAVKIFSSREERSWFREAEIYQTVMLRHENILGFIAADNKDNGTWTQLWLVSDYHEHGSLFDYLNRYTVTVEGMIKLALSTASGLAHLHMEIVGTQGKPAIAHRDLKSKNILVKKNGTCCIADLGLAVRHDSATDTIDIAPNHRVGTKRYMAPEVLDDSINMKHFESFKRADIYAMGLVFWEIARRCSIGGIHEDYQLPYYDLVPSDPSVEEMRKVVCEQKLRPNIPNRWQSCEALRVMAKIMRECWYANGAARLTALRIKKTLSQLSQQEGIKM

[7] = Example 3, 3 μM SB431542, 0.3 μM Senexin B or both, versus 10 μM ALK5iII, FIG. 4A
[8] = Example 2, SB525334 10 μM, SB431542 10 μM, IN1130 1 μM, EW-7197 1 μM, versus control medium (−)

CN1CCN(C(=O)c2ccc3cc(CCNc4ncnc5ccc(C#N)cc45)ccc3c2)CC1 [Senexin B, 4-((2-(6-(4-Methylpiperazine-1-carbonyl)naphthalen-2-yl)ethyl)amino)quinazoline-6-carbonitrile]
proportion of insulin-positive and NKX6.1-positive cells [1, 7]: higher percentage
typical endocrine cells (clusters #0, #1, #2, #3, and #6) in the insulin-positive cell population ([2]; scRNA-seq): found with almost no exception
percentage of each cluster (#1, #3, #6, and #12) in insulin-positive and NKX6.1-positive cell subpopulation [2]: different
total cell yield [3]: lower value

Cc1cccc(-c2n[nH]cc2-c2ccc3ncccc3n2)n1 [ALK5iII, 2-(3-(6-methylpyridin-2-yl)-1H-pyrazol-4-yl)-1,5-naphthyridine]
Ames test determination [4]: positive
inhibitory activity against CDK8 and CDK19 (CDK8/19) (CDK8 and CDK19 (CDK8/19)): unique to ALK5iII
typical endocrine cells (clusters #0, #1, #2, #3, and #6) in the insulin-positive cell population ([2]; scRNA-seq): found with almost no exception
Estimate pIC50 value (CDK19): 7.18 ± 0.50
Estimate pIC50 value (TGFBR2): 6.97 ± 0.12
Estimate pIC50 value (RIPK2): 6.82 ± 0.05
Estimate pIC50 value (CDK8): 6.80 ± 0.40
Estimate pIC50 value (TNIK): 6.18 ± 0.14
estimate pIC50 value against 11 kinases [5]: more than 6

Cc1cccc(-c2nc(C(C)(C)C)[nH]c2-c2ccc3nccnc3c2)n1 [SB525334, 6-[2-tert-Butyl-5-(6-methylpyridin-2-yl)-1H-imidazol-4-yl]quinoxaline]
mutagenicity / Ames test determination [6]: no mutagenicity
inhibitory activity against CDK8 and CDK19 (CDK8/19) (CDK8 and CDK19 (CDK8/19)): unique to ALK5iII
proportion of CHGA-positive and PDX1-positive cells [1, 8]: equivalent to the control
proportion of insulin-positive and NKX6.1-positive cells [1, 8]: equivalent to the control

Cc1cccc(-c2nc(Cc3cccc(C(N)=O)c3)[nH]c2-c2ccc3nccnc3c2)n1 [IN1130, 3-[[5-(6-Methyl-2-pyridinyl)-4-(6-quinoxalinyl)-1H-imidazol-2-yl]methyl]benzamide]
inhibitory activity against CDK8 and CDK19 (CDK8/19) (CDK8 and CDK19 (CDK8/19)): unique to ALK5iII
proportion of CHGA-positive and PDX1-positive cells [1, 8]: equivalent to the control
proportion of insulin-positive and NKX6.1-positive cells [1, 8]: equivalent to the control

COc1ccc2nc3cc(Cl)ccc3c(NCCCNCCCl)c2c1 [ICR 191]
# of colony ([4]; TA1537, -S9, positive control, 1.0 μg (quinoxaline analog experiment)): 1804

c1cncc(-c2n[nH]cc2-c2cnc3ccccc3n2)c1 [2-(3-(pyridin-3-yl)-1H-pyrazol-4-yl)quinoxaline]
# of colony ([4]; TA1537, -S9, 78.1 μg/plate): 5
# of colony ([4]; TA1537, -S9, 156 μg/plate): 9
# of colony ([4]; TA1537, -S9, 313 μg/plate): 21
# of colony ([4]; TA1537, -S9, 625 μg/plate): 45
# of colony ([4]; TA1537, -S9, 1250 μg/plate): 82
# of colony ([4]; TA1537, -S9, 2500 μg/plate): 128
# of colony ([4]; TA1537, -S9, 5000 μg/plate): 194
mutagenicity / Ames test determination [6]: positive
ALK5-inhibiting activity (ALK5): no ALK5-inhibiting activity

Cl.Nc1c2ccccc2nc2ccccc12.O [Compound 9-AA, 9-aminoacridine hydrochloride monohydrate]
# of colony ([4]; TA1537, -S9, positive control, 80 μg (ALK5 i II experiment)): 169

NC(=O)c1ccc(-c2nc(-c3ccc4c(c3)OCO4)c(-c3ccccn3)[nH]2)cc1 [SB431542, 4-[4-(1,3-Benzodioxol-5-yl)-5-(2-pyridinyl)-1H-imidazol-2-yl]-benzamide]
mutagenicity / Ames test determination [6]: no mutagenicity
inhibitory activity against CDK8 and CDK19 (CDK8/19) (CDK8 and CDK19 (CDK8/19)): unique to ALK5iII
proportion of CHGA-positive and PDX1-positive cells [1, 8]: equivalent to the control
proportion of insulin-positive and NKX6.1-positive cells [1, 8]: equivalent to the control
proportion of insulin-positive and NKX6.1-positive cells [1, 7]: lower values
clusters #5, #9, #10, #12, and #13 ([2]; scRNA-seq): specialized
typical endocrine cells (clusters #0, #1, #2, #3, and #6) in the insulin-positive cell population ([2]; scRNA-seq): not found
percentage of each cluster (#1, #3, #6, and #12) in insulin-positive and NKX6.1-positive cell subpopulation [2]: different
total cell yield [3]: lower values

Cc1cccc(-c2[nH]c(CNc3ccccc3F)nc2-c2ccc3ncnn3c2)n1 [EW-7197]
inhibitory activity against CDK8 and CDK19 (CDK8/19) (CDK8 and CDK19 (CDK8/19)): unique to ALK5iII
proportion of CHGA-positive and PDX1-positive cells [1, 8]: equivalent to the control
proportion of insulin-positive and NKX6.1-positive cells [1, 8]: equivalent to the control
